Blank lines part the entries; values can stand above or below the compound they belong to.
Key:
[1] = molecular target: Protein-tyrosine kinase 2-beta (Homo sapiens) (UniProt Q14289); test: Selectivity interaction (KinomeScan (DiscoverX)) EUB0000655a PTK2B; settings: at 10 µM
[2] = molecular target: Rho-associated protein kinase 2 (Homo sapiens, UniProt O75116); test: Selectivity interaction (Millipore kinase profiler) EUB0000124b ROCK2; settings: at 10 µM
[3] = molecular target: T1, Mitogen-activated protein kinase 12 (Homo sapiens) (UniProt P53778); test: Selectivity interaction (Millipore kinase profiler) EUB0000124b MAPK12; settings: at 10 µM
T1 sequence (whole entry): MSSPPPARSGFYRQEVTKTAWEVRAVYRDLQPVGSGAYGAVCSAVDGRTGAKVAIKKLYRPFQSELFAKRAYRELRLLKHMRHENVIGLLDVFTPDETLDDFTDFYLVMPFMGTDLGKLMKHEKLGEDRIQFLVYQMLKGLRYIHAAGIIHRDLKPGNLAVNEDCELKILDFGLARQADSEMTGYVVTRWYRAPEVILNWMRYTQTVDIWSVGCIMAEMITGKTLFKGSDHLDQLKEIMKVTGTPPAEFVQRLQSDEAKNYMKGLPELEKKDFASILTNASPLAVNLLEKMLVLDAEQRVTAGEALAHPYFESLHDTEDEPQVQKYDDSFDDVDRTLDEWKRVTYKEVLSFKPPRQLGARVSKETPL

Focal adhesion kinase 1 = Focal adhesion kinase 1 (Homo sapiens, UniProt Q05397); test: Selectivity interaction (KinomeScan (DiscoverX)) EUB0000607a PTK2; settings: at 10 µM
[4] = molecular target: T2, Inhibitor of nuclear factor kappa-B kinase subunit epsilon (Homo sapiens) (UniProt Q14164); test: Selectivity interaction (ActivX KiNativ screen (ex vivo kinase selectivity in human PBMCs)) EUB0001619a IKBKE; assay type: cell-based; settings: PBMC, at 1 µM
T2 sequence (whole entry): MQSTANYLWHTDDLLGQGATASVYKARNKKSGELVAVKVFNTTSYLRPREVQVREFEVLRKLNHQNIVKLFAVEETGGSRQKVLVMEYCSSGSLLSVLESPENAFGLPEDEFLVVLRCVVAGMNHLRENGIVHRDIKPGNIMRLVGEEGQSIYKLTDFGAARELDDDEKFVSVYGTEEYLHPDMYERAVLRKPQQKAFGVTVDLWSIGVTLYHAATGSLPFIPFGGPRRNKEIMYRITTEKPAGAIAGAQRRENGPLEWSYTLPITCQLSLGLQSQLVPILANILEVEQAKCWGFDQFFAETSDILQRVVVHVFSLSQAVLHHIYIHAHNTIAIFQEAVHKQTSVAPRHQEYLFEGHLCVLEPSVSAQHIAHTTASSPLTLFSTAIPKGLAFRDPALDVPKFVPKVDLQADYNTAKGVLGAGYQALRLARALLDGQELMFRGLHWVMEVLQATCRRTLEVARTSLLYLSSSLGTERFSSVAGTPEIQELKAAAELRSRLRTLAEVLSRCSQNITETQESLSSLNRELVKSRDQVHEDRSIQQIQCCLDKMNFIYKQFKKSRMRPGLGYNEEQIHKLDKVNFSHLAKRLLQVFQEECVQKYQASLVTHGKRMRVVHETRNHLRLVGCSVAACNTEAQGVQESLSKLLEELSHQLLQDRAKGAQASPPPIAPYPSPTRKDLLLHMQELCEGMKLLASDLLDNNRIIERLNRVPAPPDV

[5] = molecular target: Serine/threonine-protein kinase PLK3 (Homo sapiens, UniProt Q9H4B4); test: Selectivity interaction (KinomeScan (DiscoverX)) EUB0000595a PLK3; settings: at 10 µM
[6] = molecular target: Protein arginine N-methyltransferase 8 (Homo sapiens, UniProt Q9NR22); test: Selectivity interaction (Transferase panel (protein, RNA, and DNA methyltransferases. and EP300 (acetyltransferase))) EUB0000270b PRMT8
[7] = molecular target: T3, Ephrin type-B receptor 6 (Homo sapiens) (UniProt O15197); test: Selectivity interaction (KinomeScan (DiscoverX)) EUB0000666a EPHB6; settings: at 10 µM
T3 sequence (whole entry): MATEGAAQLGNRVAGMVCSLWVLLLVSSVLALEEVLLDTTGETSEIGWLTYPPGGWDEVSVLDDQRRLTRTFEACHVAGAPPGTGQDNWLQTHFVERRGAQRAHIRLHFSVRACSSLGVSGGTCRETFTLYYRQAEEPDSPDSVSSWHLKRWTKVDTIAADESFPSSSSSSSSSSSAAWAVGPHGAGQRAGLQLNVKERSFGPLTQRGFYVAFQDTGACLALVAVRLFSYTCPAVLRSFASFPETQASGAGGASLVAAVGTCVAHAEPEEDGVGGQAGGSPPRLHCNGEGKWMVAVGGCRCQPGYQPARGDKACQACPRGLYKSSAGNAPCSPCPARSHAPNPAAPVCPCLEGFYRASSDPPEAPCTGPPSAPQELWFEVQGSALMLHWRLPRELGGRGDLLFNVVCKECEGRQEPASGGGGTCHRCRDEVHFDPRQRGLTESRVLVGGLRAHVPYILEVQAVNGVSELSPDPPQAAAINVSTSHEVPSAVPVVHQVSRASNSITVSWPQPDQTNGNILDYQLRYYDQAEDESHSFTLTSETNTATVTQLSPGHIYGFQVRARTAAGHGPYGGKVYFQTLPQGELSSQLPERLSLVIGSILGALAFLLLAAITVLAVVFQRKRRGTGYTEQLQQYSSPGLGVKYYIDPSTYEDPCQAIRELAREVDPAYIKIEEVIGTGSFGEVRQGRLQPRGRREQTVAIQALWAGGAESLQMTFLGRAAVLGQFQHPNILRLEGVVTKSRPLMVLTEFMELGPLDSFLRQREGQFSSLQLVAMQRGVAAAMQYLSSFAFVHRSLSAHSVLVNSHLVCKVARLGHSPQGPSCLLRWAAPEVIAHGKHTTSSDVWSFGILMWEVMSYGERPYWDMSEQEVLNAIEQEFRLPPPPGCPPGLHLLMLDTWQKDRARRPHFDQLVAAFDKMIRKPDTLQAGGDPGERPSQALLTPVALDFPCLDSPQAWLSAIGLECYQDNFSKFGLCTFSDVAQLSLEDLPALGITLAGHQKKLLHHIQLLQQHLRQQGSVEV

[8] = molecular target: ATPase family AAA domain-containing protein 2B (Homo sapiens) (UniProt Q9ULI0); test: Selectivity interaction (Human bromodomain panel (DSF assay)) EUB0000233b ATAD2B
[9] = molecular target: Bromodomain-containing protein 9 (Homo sapiens) (UniProt Q9H8M2); test: Selectivity interaction (Human bromodomain panel (DSF assay)) EUB0000233b BRD9
Sequence of Bromodomain-containing protein 9 (Homo sapiens) (Q9H8M2 whole entry): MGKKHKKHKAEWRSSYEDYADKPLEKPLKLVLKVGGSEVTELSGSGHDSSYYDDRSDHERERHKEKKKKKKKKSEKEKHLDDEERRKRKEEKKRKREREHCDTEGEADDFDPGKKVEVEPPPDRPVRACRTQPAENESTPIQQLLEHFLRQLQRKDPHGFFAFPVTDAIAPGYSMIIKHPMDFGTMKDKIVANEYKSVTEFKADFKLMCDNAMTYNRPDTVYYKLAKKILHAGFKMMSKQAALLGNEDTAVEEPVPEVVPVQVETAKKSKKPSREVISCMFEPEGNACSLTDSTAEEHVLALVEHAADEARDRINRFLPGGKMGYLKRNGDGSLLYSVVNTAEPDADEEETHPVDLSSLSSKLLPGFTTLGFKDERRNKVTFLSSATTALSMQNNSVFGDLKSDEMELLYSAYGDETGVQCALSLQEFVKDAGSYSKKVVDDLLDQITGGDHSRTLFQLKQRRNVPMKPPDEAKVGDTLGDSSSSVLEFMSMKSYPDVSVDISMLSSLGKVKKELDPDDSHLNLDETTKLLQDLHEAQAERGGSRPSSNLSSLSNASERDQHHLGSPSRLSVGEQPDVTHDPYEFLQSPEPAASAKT

Sequence of Protein arginine N-methyltransferase 8 (Q9NR22 2-394 limits assumed): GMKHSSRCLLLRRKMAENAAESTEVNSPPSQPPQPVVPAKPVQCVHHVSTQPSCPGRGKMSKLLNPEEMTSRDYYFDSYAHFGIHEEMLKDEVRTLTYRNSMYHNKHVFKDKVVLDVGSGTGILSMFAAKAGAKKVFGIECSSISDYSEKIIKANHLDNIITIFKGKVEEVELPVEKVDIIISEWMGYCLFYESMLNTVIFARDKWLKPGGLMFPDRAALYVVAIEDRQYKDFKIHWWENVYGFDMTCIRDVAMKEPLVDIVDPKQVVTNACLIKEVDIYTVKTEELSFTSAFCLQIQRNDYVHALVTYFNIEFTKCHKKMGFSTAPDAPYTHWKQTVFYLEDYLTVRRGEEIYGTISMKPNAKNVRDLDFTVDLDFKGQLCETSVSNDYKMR
Sequence of Focal adhesion kinase 1 (Q05397 2-1052 limits assumed): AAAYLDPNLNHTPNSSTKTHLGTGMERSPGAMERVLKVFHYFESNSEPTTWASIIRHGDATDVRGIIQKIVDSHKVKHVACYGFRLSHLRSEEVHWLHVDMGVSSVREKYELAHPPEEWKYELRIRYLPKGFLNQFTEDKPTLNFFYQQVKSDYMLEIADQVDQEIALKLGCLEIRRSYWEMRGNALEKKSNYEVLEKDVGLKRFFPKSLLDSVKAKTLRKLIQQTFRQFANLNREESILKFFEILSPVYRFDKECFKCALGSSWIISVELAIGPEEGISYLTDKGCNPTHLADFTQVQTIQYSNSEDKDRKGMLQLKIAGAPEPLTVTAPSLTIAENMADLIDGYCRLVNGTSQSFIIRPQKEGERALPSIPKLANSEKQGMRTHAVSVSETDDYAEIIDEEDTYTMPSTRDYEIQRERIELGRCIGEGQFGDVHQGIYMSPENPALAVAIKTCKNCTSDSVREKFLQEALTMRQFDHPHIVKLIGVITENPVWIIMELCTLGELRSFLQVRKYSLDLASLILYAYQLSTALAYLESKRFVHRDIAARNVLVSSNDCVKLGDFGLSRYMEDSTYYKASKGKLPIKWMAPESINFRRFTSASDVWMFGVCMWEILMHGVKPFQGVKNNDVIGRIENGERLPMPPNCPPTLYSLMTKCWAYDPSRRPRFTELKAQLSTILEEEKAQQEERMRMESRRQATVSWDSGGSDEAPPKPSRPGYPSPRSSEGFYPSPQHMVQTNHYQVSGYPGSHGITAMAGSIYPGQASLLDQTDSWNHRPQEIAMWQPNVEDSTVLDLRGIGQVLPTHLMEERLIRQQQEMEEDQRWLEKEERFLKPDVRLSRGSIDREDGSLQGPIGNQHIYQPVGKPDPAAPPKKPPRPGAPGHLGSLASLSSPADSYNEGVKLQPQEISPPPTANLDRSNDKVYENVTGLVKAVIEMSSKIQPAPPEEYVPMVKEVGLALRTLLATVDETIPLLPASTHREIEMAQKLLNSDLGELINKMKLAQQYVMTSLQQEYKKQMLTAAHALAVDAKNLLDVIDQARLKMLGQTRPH
Sequence of Protein-tyrosine kinase 2-beta (Homo sapiens) (Q14289 whole entry, looked up): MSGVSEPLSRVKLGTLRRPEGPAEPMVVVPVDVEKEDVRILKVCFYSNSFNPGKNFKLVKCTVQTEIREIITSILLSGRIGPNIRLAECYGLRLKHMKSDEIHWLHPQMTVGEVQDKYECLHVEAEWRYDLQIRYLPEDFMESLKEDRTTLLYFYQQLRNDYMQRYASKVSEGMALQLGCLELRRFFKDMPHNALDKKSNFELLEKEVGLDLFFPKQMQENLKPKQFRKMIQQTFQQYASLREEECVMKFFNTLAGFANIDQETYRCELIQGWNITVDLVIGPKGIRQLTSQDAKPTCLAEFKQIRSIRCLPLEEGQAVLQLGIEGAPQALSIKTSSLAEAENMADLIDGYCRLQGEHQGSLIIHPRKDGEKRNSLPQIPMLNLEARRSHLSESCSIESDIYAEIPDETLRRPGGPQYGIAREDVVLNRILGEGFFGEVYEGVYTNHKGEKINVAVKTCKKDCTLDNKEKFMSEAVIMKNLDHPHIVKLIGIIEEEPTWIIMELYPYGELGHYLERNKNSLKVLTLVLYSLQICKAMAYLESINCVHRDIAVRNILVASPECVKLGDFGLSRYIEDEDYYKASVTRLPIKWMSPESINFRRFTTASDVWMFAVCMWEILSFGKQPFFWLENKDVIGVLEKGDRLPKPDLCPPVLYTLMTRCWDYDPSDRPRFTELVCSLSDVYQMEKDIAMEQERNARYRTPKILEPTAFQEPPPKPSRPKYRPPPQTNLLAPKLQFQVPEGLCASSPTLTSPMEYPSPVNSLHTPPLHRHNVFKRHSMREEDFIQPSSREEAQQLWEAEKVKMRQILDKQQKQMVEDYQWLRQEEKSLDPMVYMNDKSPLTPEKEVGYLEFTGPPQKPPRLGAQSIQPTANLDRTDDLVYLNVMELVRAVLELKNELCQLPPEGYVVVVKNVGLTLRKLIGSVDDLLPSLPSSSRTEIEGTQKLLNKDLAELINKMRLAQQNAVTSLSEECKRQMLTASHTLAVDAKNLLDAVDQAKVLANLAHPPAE
Sequence of ATPase family AAA domain-containing protein 2B (Homo sapiens) (Q9ULI0 whole entry, the tested form may be a part): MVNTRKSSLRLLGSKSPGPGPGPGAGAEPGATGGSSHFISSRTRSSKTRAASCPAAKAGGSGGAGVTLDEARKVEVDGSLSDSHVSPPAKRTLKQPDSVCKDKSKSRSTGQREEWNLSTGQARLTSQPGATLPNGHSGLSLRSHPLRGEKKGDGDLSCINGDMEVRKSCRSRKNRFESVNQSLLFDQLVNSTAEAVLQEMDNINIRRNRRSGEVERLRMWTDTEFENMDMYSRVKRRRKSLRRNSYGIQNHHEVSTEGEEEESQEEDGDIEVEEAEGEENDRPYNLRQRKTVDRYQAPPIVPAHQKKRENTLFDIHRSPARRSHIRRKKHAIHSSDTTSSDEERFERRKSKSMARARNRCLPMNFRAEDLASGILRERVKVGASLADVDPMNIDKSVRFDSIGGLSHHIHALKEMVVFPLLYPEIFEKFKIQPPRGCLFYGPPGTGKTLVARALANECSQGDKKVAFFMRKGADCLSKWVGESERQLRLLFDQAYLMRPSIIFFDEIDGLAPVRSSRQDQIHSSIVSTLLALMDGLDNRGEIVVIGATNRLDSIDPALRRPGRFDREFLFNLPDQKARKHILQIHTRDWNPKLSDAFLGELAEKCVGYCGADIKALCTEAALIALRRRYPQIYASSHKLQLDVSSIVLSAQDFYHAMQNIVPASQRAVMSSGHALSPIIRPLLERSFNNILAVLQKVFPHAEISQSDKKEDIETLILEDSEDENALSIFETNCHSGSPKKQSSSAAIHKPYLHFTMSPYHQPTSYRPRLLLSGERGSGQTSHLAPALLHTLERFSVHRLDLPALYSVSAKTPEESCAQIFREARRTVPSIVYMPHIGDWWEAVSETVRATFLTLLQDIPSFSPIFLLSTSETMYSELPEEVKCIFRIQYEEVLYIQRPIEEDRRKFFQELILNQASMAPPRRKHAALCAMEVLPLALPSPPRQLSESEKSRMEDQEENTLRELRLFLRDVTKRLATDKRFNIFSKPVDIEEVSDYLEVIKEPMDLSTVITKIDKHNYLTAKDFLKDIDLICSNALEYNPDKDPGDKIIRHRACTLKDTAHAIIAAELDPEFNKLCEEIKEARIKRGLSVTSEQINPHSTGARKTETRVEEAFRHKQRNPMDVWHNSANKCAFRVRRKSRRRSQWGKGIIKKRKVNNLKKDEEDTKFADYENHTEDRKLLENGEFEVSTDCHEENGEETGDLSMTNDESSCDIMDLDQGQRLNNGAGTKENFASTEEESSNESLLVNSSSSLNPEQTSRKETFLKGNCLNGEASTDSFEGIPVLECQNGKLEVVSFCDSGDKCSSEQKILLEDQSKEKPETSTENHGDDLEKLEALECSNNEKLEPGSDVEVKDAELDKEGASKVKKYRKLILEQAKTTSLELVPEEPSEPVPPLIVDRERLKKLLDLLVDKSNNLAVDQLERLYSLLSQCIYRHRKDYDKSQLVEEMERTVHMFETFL

SMILES: CN(C)CCOc1ccc(-c2nc(-c3ccncc3)c(-c3ccc4c(c3)CC/C4=N\O)[nH]2)cc1
% of control [1]: 100%

% of control [2]: 99%
% of control [3]: 97%
SMILES: CC(=O)Nc1cccc(-n2c(=O)n(C3CC3)c(=O)c3c(Nc4ccc(I)cc4F)n(C)c(=O)c(C)c32)c1

SMILES: CNC(=O)Nc1ccc(-c2nc(N3CC4CCC(C3)O4)c3cnn(C4CCC5(CC4)OCCO5)c3n2)cc1
% of control (Focal adhesion kinase 1): 78%

SMILES: N#Cc1cccc(-c2c[nH]c3ncnc(N4CCOCC4)c23)c1
% of inhibition [4]: 19%

SMILES: COCC(=O)NC/C=C/c1ccc2ncnc(Nc3ccc(Oc4ccc(C)nc4)c(C)c3)c2c1 [CP-724714]
% of control [5]: 99%

% activity ([6]; at 1 µM): > 90%
% activity ([6]; at 10 µM): > 80%
SMILES: Cc1cc(CN)cc(C)c1-c1ncn(C)c1-c1cncn1C

SMILES: O=C(NOC[C@H](O)CO)c1ccc(F)c(F)c1Nc1ccc(I)cc1F
% of control [7]: 87%

dTM [8]: < 2 K
dTM [9]: 4.8 K
SMILES: CN(C)CCCOc1ccc(-c2cc(NCCCn3cccn3)nc(S(C)(=O)=O)n2)cc1

Source: ChEMBL document CHEMBL5465560, “Selectivity Literature for EUbOPEN Chemogenomic Library” (2024)
